Measurements as given in the supplement of paper PMC13207355.
Structures can show the parent of a compound that is named as a salt.

What was measured:
Settings in all cases: exposure time: 72 h
E28 [1] = patient-derived glioblastoma stem cells of classical subtype; assay: surviving fraction (nuclei count normalised to DMSO); higher = more cells surviving (less toxic)
E21 [2] = patient-derived glioblastoma stem cells of mesenchymal subtype; assay: as above
E13 [3] = patient-derived glioblastoma stem cells of classical subtype; assay: as above
E31 [4] = patient-derived glioblastoma stem cells of proneural subtype; assay: as above
FT3469 [5] = normal neural stem cell line; assay: as above
E34 [6] = patient-derived glioblastoma stem cells of proneural subtype; assay: as above
E57 [7] = patient-derived glioblastoma stem cells of mesenchymal subtype; assay: as above
E28 [8] = assay: phenotypic distance (Euclidean, principal components) from DMSO controls (arbitrary units); higher = stronger morphological change
E21 [9] = assay: as above
E13 [10] = assay: as above
E31 [11] = assay: as above
FT3469 [12] = assay: as above
E34 [13] = assay: as above
E57 [14] = assay: as above
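Wherever phenotypic distance (Euclidean, principal components) from DMSO controls is given: cell Painting imaging in 384-well plates, CellProfiler features reduced to at least 20 principal components, Euclidean distance versus same-plate DMSO vehicle wells (0.1% v/v), median over six images per well.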
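Wherever surviving fraction (nuclei count normalised to DMSO) is given: nuclei counted by high-content imaging of Hoechst-stained cells in laminin-coated 384-well plates, relative to 0.1% DMSO vehicle wells, with staurosporine as cell-death control.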

COc1cc2nc(N3CCN(C(=O)c4ccco4)CC3)nc(N)c2cc1OC [Prazosin hydrochloride]
Settings	phenotypic distance	surviving fraction
E13 [3], 4.11523 nM	–	1.11
E13 [3], 12.34567901 nM	–	0.996
E13 [3], 37.037 nM	–	1.07
E13 [3], 111.1111111 nM	–	0.955
E13 [3], 333.333 nM	–	1.04
E13 [3], 1000 nM	–	1.03
E13 [3], 3000 nM	–	0.815
E13 [10], 4.11523 nM	0.601	–
E13 [10], 12.34567901 nM	3.49	–
E13 [10], 37.037 nM	2.1	–
E13 [10], 111.1111111 nM	0.55	–
E13 [10], 333.333 nM	0.666	–
E13 [10], 1000 nM	0.512	–
E13 [10], 3000 nM	2.04	–
E21 [2], 4.11523 nM	–	1.03
E21 [2], 12.34567901 nM	–	1.03
E21 [2], 37.037 nM	–	1
E21 [2], 111.1111111 nM	–	1.04
E21 [2], 333.333 nM	–	1.11
E21 [2], 1000 nM	–	0.938
E21 [2], 3000 nM	–	0.912
E21 [9], 4.11523 nM	0.712	–
E21 [9], 12.34567901 nM	0.547	–
E21 [9], 37.037 nM	0.834	–
E21 [9], 111.1111111 nM	0.524	–
E21 [9], 333.333 nM	0.736	–
E21 [9], 1000 nM	0.384	–
E21 [9], 3000 nM	0.699	–
E28 [1], 4.11523 nM	–	1.07
E28 [1], 12.34567901 nM	–	0.881
E28 [1], 37.037 nM	–	1.17
E28 [1], 111.1111111 nM	–	0.956
E28 [1], 333.333 nM	–	1.2
E28 [1], 1000 nM	–	0.907
E28 [1], 3000 nM	–	0.976
E28 [8], 4.11523 nM	0.643	–
E28 [8], 12.34567901 nM	0.664	–
E28 [8], 37.037 nM	1.1	–
E28 [8], 111.1111111 nM	0.589	–
E28 [8], 333.333 nM	0.766	–
E28 [8], 1000 nM	1.03	–
E28 [8], 3000 nM	0.426	–
E31 [4], 4.11523 nM	–	0.988
E31 [4], 12.34567901 nM	–	1.19
E31 [4], 37.037 nM	–	1.13
E31 [4], 111.1111111 nM	–	1.03
E31 [4], 333.333 nM	–	1.04
E31 [4], 1000 nM	–	1.07
E31 [4], 3000 nM	–	1
E31 [11], 4.11523 nM	0.642	–
E31 [11], 12.34567901 nM	0.488	–
E31 [11], 37.037 nM	0.739	–
E31 [11], 111.1111111 nM	0.653	–
E31 [11], 333.333 nM	0.984	–
E31 [11], 1000 nM	0.431	–
E31 [11], 3000 nM	0.892	–
E34 [6], 4.11523 nM	–	1.04
E34 [6], 12.34567901 nM	–	0.994
E34 [6], 37.037 nM	–	1.14
E34 [6], 111.1111111 nM	–	0.986
E34 [6], 333.333 nM	–	1.11
E34 [6], 1000 nM	–	0.837
E34 [6], 3000 nM	–	1.04
E34 [13], 4.11523 nM	0.522	–
E34 [13], 12.34567901 nM	0.593	–
E34 [13], 37.037 nM	0.611	–
E34 [13], 111.1111111 nM	0.647	–
E34 [13], 333.333 nM	0.638	–
E34 [13], 1000 nM	0.628	–
E34 [13], 3000 nM	0.776	–
E57 [7], 4.11523 nM	–	1.07
E57 [7], 12.34567901 nM	–	1.02
E57 [7], 37.037 nM	–	1.09
E57 [7], 111.1111111 nM	–	0.961
E57 [7], 333.333 nM	–	1
E57 [7], 1000 nM	–	0.915
E57 [7], 3000 nM	–	0.97
E57 [14], 4.11523 nM	0.592	–
E57 [14], 12.34567901 nM	0.576	–
E57 [14], 37.037 nM	0.642	–
E57 [14], 111.1111111 nM	0.745	–
E57 [14], 333.333 nM	0.475	–
E57 [14], 1000 nM	0.697	–
E57 [14], 3000 nM	0.95	–
FT3469 [5], 4.11523 nM	–	1
FT3469 [5], 12.34567901 nM	–	1.14
FT3469 [5], 37.037 nM	–	1.03
FT3469 [5], 111.1111111 nM	–	1.05
FT3469 [5], 333.333 nM	–	1.14
FT3469 [5], 1000 nM	–	1.12
FT3469 [5], 3000 nM	–	1.06
FT3469 [12], 4.11523 nM	0.634	–
FT3469 [12], 12.34567901 nM	0.798	–
FT3469 [12], 37.037 nM	0.909	–
FT3469 [12], 111.1111111 nM	0.541	–
FT3469 [12], 333.333 nM	0.436	–
FT3469 [12], 1000 nM	0.748	–
FT3469 [12], 3000 nM	0.762	–

CC(C)NCC(O)COc1cccc2ccccc12 (stereo unspecified) [Propranolol hydrochloride]
Settings	phenotypic distance	surviving fraction
E13 [3], 4.1 nM	–	0.971
E13 [3], 12.3 nM	–	1.08
E13 [3], 37 nM	–	0.923
E13 [3], 111.1 nM	–	1.07
E13 [3], 333.3 nM	–	1.1
E13 [3], 1000 nM	–	1.03
E13 [3], 3000 nM	–	0.991
E13 [10], 4.1 nM	0.572	–
E13 [10], 12.3 nM	1.82	–
E13 [10], 37 nM	0.661	–
E13 [10], 111.1 nM	0.582	–
E13 [10], 333.3 nM	0.522	–
E13 [10], 1000 nM	0.547	–
E13 [10], 3000 nM	0.516	–
E21 [2], 4.1 nM	–	0.912
E21 [2], 12.3 nM	–	0.926
E21 [2], 37 nM	–	0.978
E21 [2], 111.1 nM	–	1.01
E21 [2], 333.3 nM	–	1.01
E21 [2], 1000 nM	–	1.1
E21 [2], 3000 nM	–	1
E21 [9], 4.1 nM	0.729	–
E21 [9], 12.3 nM	0.784	–
E21 [9], 37 nM	0.999	–
E21 [9], 111.1 nM	0.707	–
E21 [9], 333.3 nM	0.864	–
E21 [9], 1000 nM	0.673	–
E21 [9], 3000 nM	0.713	–
E28 [1], 4.1 nM	–	0.98
E28 [1], 12.3 nM	–	1.05
E28 [1], 37 nM	–	0.949
E28 [1], 111.1 nM	–	1.12
E28 [1], 333.3 nM	–	1.03
E28 [1], 1000 nM	–	1.13
E28 [1], 3000 nM	–	1.03
E28 [8], 4.1 nM	0.642	–
E28 [8], 12.3 nM	0.425	–
E28 [8], 37 nM	0.914	–
E28 [8], 111.1 nM	0.692	–
E28 [8], 333.3 nM	0.687	–
E28 [8], 1000 nM	0.509	–
E28 [8], 3000 nM	0.633	–
E31 [4], 4.1 nM	–	0.954
E31 [4], 12.3 nM	–	0.993
E31 [4], 37 nM	–	1.1
E31 [4], 111.1 nM	–	1.08
E31 [4], 333.3 nM	–	0.917
E31 [4], 1000 nM	–	0.96
E31 [4], 3000 nM	–	1.05
E31 [11], 4.1 nM	0.541	–
E31 [11], 12.3 nM	0.694	–
E31 [11], 37 nM	0.736	–
E31 [11], 111.1 nM	0.802	–
E31 [11], 333.3 nM	0.203	–
E31 [11], 1000 nM	0.509	–
E31 [11], 3000 nM	0.646	–
E34 [6], 4.1 nM	–	0.945
E34 [6], 12.3 nM	–	0.847
E34 [6], 37 nM	–	0.941
E34 [6], 111.1 nM	–	1.06
E34 [6], 333.3 nM	–	0.876
E34 [6], 1000 nM	–	1.1
E34 [6], 3000 nM	–	0.949
E34 [13], 4.1 nM	0.622	–
E34 [13], 12.3 nM	0.866	–
E34 [13], 37 nM	0.551	–
E34 [13], 111.1 nM	0.616	–
E34 [13], 333.3 nM	0.597	–
E34 [13], 1000 nM	0.71	–
E34 [13], 3000 nM	0.686	–
E57 [7], 4.1 nM	–	1.05
E57 [7], 12.3 nM	–	0.959
E57 [7], 37 nM	–	1.11
E57 [7], 111.1 nM	–	1.14
E57 [7], 333.3 nM	–	1.1
E57 [7], 1000 nM	–	1.09
E57 [7], 3000 nM	–	1.06
E57 [14], 4.1 nM	0.6	–
E57 [14], 12.3 nM	1.04	–
E57 [14], 37 nM	0.554	–
E57 [14], 111.1 nM	0.801	–
E57 [14], 333.3 nM	0.597	–
E57 [14], 1000 nM	0.686	–
E57 [14], 3000 nM	0.742	–
FT3469 [5], 4.1 nM	–	0.985
FT3469 [5], 12.3 nM	–	1.11
FT3469 [5], 37 nM	–	1.03
FT3469 [5], 111.1 nM	–	0.965
FT3469 [5], 333.3 nM	–	1.01
FT3469 [5], 1000 nM	–	1.24
FT3469 [5], 3000 nM	–	1.13
FT3469 [12], 4.1 nM	0.45	–
FT3469 [12], 12.3 nM	0.575	–
FT3469 [12], 37 nM	0.676	–
FT3469 [12], 111.1 nM	0.814	–
FT3469 [12], 333.3 nM	0.71	–
FT3469 [12], 1000 nM	0.957	–
FT3469 [12], 3000 nM	0.566	–
